According to patent US10563267B2, “Polymorphism biomarkers predict clinical outcomes of cancer patients receiving regorafenib” (University of Southern California, priority 2016, dated 2020):

Experiments:
cancer patients [1] = test: Hand foot skin reaction (HFSR) in cancer patients receiving regorafenib, by ethnicity; format: in vivo, human
Method: HFSR of grade 3-4 are among the most common grade 3-4 […] reactions associated with a therapy with regorafenib or an equivalent thereof. In this example, single nucleotide polymorphisms (SNPs) of CCL5 were evaluated for their ability to predict the likelihood for a patient to experience HFSR from a therapy comprising an effective amount of regorafenib or an equivalent thereof.
Genomic DNA was obtained from more than 200 cancer patients receiving regorafenib and analyzed by using PCR-based direct sequencing. SNPs in CCL5 were tested to discover that the rarity (<1%) of the genotype of (G/G) for the rs2280789 polymorphism and/or the rs3817655 polymorphism (the genotype of (G/G) for the rs2280789 polymorphism and/or the rs3817655 are seen in 10% in Asian (Japanese) and 1% in Caucasian (Italian)) relates to the significant ethnic difference in severe HFSR developed by Caucasian patients compared to Japanese patients (grade 3 HFSR 16% vs 33.8% respectively, p=0.003).

cancer patients [2] = test: Clinical outcome (OS, PFS, tumor response) of cancer patients treated with regorafenib, by SNP genotype; format: in vivo, human
Method: Further, single nucleotide polymorphisms (SNPs) of genes involved in various angiogenic pathways were evaluated for their ability to predict clinical outcomes for cancer patient treated with a therapy comprising regorafenib or an equivalent thereof.
Still further, combinations of single nucleotide polymorphisms (SNPs) of genes involved in various angiogenic pathways were evaluated for their ability to predict clinical outcomes for cancer patient treated with a therapy comprising regorafenib or an equivalent thereof.
Genomic DNA was obtained from cancer patients in therapies comprising regorafenib or an equivalent thereof and analyzed by using PCR-based direct sequencing. Multiple functional SNPs in 11 genes (NOTCH1, IL8, CCL5, DLL4, PLGF, ANG2, TIE1, PDGFRB, VEGFR2, EGFC and VEGFA) were tested.
PCR and product sequencing were done using standard procedures. Uni- and multivariate analyses, adjusting for age, gender, rash and racial background, were carried out.

[3] = VEGFR2 rs2071559 A/Variant + NOTCH1 rs3125001 C/C + ANG2 rs2916702 A/Variant carriers
[4] = VEGFR2 rs2071559 A/Variant + NOTCH1 rs3125001 C/C + ANG2 rs2916702 G/G carriers
[5] = VEGFR2 rs2071559 A/Variant + NOTCH1 rs3125001 T/Variant carriers
[6] = VEGFR2 rs2071559 A/variant carriers (N=111)

## CNC(=O)c1cc(Oc2ccc(NC(=O)Nc3ccc(Cl)c(C(F)(F)F)c3)c(F)c2)ccn1 [regorafenib]
Cancer patients [1]; Caucasian (Italian) patients receiving regorafenib
  grade 3 HFSR: 16%
Cancer patients [1]; Japanese patients receiving regorafenib
  grade 3 HFSR: 33.8%
Cancer patients [2]; TIE1 A/A + Plgf C/C vs TIE1 G/Variant carriers (HR reference), multivariate
  HR for OS: 0.22
Cancer patients [2]; TIE1 A/A + Plgf T/Variant vs TIE1 G/Variant carriers (HR reference), multivariate
  HR for OS: 0.79
Cancer patients [2]; TIE1 rs7527092 A/A (N=41)
  median OS: 4.7 months
Cancer patients [2]; TIE1 rs7527092 A/A + Plgf rs2268614 C/C carriers (N=9)
  median OS: 2.6 months
Cancer patients [2]; TIE1 rs7527092 A/A + Plgf rs2268614 T/Variant carriers (N=32)
  median OS: 5.8 months
Cancer patients [2]; TIE1 rs7527092 A/A vs G/variant carriers, multivariate, p=0.0063
  HR for OS: 1.72
Cancer patients [2]; TIE1 rs7527092 A/A vs G/variant carriers, univariate, p=0.0303
  HR for OS: 1.49
Cancer patients [2]; TIE1 rs7527092 G/Variant carriers (N=109)
  median OS: 7.8 months
Cancer patients [2]; TIE1 rs7527092 G/variant carriers (N=106)
  median OS: 7.8 months
Cancer patients [2]; [3]
  patients non-responsive (tumor response): 7
  patients responsive (tumor response): 16
Cancer patients [2]; [4]
  patients non-responsive (tumor response): 6
  patients responsive (tumor response): 2
Cancer patients [2]; [5]
  patients non-responsive (tumor response): 49
  patients responsive (tumor response): 25
Cancer patients [2]; [6]
  median OS: 7.0 months
  median PFS: 2.3 months
  response (positive): 41%
Cancer patients [2]; VEGFR2 rs2071559 G/G (N=39)
  median OS: 4.7 months
  median PFS: 1.8 months
  response (positive): 18%
Cancer patients [2]; VEGFR2 rs2071559 G/G carriers
  patients non-responsive (tumor response): 31
  patients responsive (tumor response): 7
Cancer patients [2]; VEGFR2 rs2071559 G/G vs A/variant carriers, multivariate, p=0.0197
  HR for PFS: 1.59
Cancer patients [2]; VEGFR2 rs2071559 G/G vs A/variant carriers, univariate, p=0.0250
  HR for PFS: 1.49
Cancer patients [2]; VEGFR2 rs2071559 G/G vs A/variant carriers, univariate, p=0.0452
  HR for OS: 1.45
Cancer patients [2]; high-risk group: VEGFR2 rs2071559 G/G + NOTCH1 rs6563 A/A (N=15) together with G/G + NOTCH1 G/Variant + ANG2 rs2442599 A/A (N=11)
  median PFS: 1.7 months
Cancer patients [2]; low-risk group: VEGFR2 rs2071559 A/variant (N=111) together with G/G + NOTCH1 rs6563 G/Variant + ANG2 rs2442599 G/Variant (N=13)
  median PFS: 2.3 months
Cancer patients [2]; tree model high-risk vs low-risk group (VEGFR2/NOTCH1/ANG2), multivariate, log-rank P<0.001
  HR for PFS: 0.41
